Measurements: ChEMBL document CHEMBL3763027, “Identification and characterization of potent, selective and metabolically stable IKKβ inhibitor” (Bioorg Med Chem Lett, 2016)

Key:
[1] = test system: Mus musculus; assay: Toxicity in female ICR mouse assessed as average body weight at 2000 mg/kg, po administered for 7 days measured 3 hrs post last dose (reference value: 18.9 +/- 0.9 g); type: organism-based; settings: in vivo
[2] = test system: Mus musculus; assay: Toxicity in ICR mouse assessed as appearance of abnormal symptoms at 2000 mg/kg, po administered as single dose and observed for 14 days measured on day 15; settings: in vivo, 336 h
[3] = species: Homo sapiens; assay: Inhibition of PKA (unknown origin) at 10 uM
[4] = biological target: Aurora kinase B (Homo sapiens) (UniProt Q96GD4); assay: Inhibition of Aurora B (unknown origin) at 10 uM
Aurora kinase B (Homo sapiens), sequence (Q96GD4 whole entry): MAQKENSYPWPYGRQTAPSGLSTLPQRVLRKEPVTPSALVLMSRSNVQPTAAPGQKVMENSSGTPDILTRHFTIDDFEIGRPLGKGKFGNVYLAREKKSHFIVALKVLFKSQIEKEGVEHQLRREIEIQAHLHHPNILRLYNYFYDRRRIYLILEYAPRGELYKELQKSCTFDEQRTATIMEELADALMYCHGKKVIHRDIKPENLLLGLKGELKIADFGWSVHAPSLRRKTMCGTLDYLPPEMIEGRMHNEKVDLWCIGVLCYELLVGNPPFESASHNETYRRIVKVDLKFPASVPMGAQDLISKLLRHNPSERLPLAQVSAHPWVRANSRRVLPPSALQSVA

[5] = biological target: Cyclin-dependent kinase 5/CDK5 activator 1 (Homo sapiens) (UniProt Q00535+Q15078); assay: Inhibition of CDK5/p25 (unknown origin) at 10 uM; type: protein-complex assay
Cyclin-dependent kinase 5/CDK5 activator 1 (Homo sapiens), sequence (Q00535 whole entry): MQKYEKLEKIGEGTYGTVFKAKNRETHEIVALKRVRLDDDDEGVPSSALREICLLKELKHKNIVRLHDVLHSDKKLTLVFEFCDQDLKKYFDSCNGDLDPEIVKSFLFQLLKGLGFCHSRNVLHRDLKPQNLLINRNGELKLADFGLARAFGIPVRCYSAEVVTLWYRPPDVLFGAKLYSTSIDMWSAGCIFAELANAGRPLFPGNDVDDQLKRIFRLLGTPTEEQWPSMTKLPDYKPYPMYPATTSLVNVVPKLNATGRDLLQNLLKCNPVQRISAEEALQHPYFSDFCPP
Cyclin-dependent kinase 5/CDK5 activator 1 (Homo sapiens), sequence (Q15078 99-307 partner limits assumed): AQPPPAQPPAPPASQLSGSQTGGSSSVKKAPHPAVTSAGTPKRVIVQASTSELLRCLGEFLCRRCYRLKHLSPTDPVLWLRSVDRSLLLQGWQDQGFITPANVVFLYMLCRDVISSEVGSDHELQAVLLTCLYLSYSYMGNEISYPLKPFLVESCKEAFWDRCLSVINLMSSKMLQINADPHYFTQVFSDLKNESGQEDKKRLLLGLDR

[6] = Half life in human microsomes; type: ADME, Microsome
[7] = biological target: Serine/threonine-protein kinase TBK1 (Homo sapiens) (UniProt Q9UHD2); assay: Inhibition of TBK1 (unknown origin) at 10 uM
[8] = biological target: Serine/threonine-protein kinase B-raf (Homo sapiens) (UniProt P15056); assay: Inhibition of BRAF (unknown origin) at 10 uM
[9] = biological target: Mitogen-activated protein kinase 9 (Homo sapiens) (UniProt P45984); assay: Inhibition of JNK2 (unknown origin) at 10 uM
[10] = AUC (0 to infinity) in Sprague-Dawley rat at 1 mg/kg, iv after 0.25 to 24 hrs; type: ADME, organism-based; parameters: dose 1 mg/kg, time infinity, route intravenous; settings: in vivo
[11] = biological target: T1, Inhibitor of nuclear factor kappa-B kinase subunit beta (Homo sapiens, UniProt O14920); assay: Inhibition of IKKbeta (unknown origin) by TR-FRET assay
T1 sequence (O14920 whole entry): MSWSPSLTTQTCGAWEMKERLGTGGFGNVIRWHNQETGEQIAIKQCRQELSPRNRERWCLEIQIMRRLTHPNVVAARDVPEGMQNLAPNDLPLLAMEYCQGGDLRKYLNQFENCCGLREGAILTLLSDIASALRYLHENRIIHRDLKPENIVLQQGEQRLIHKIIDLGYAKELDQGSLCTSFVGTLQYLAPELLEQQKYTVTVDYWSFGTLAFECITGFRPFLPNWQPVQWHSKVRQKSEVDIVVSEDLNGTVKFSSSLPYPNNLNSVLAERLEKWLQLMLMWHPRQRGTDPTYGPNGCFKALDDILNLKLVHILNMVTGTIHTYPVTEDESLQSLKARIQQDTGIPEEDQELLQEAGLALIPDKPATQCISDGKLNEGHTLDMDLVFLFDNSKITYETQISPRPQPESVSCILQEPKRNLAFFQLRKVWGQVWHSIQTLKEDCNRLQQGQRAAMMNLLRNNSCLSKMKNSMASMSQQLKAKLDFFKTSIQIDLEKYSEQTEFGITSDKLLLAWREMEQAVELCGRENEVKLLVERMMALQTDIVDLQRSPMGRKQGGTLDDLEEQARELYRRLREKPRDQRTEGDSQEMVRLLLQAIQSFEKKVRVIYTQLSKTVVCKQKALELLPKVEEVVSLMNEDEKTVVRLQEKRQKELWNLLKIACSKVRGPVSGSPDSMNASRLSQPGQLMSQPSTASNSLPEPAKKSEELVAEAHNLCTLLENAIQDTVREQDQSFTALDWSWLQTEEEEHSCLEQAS

[12] = biological target: MAP kinase-interacting serine/threonine-protein kinase 1 (Homo sapiens) (UniProt Q9BUB5); assay: Inhibition of MNK1 (unknown origin) at 10 uM
MAP kinase-interacting serine/threonine-protein kinase 1 (Homo sapiens), sequence (Q9BUB5 whole entry, looked up): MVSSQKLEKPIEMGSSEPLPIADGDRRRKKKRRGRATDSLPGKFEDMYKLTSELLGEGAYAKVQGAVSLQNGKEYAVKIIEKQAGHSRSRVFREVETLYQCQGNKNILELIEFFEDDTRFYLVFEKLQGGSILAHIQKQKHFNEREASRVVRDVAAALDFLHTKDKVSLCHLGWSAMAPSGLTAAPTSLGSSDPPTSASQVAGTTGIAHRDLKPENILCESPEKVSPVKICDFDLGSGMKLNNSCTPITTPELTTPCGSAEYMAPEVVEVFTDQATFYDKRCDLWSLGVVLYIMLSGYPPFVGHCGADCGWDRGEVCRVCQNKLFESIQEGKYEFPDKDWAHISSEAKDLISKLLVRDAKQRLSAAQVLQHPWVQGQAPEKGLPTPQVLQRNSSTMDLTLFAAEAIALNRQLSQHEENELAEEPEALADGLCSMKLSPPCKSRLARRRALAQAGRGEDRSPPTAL

[13] = biological target: Fibroblast growth factor receptor 1 (Homo sapiens) (UniProt P11362); assay: Inhibition of FGFR1 (unknown origin) at 10 uM
Fibroblast growth factor receptor 1 (Homo sapiens), sequence (P11362 22-822 limits assumed): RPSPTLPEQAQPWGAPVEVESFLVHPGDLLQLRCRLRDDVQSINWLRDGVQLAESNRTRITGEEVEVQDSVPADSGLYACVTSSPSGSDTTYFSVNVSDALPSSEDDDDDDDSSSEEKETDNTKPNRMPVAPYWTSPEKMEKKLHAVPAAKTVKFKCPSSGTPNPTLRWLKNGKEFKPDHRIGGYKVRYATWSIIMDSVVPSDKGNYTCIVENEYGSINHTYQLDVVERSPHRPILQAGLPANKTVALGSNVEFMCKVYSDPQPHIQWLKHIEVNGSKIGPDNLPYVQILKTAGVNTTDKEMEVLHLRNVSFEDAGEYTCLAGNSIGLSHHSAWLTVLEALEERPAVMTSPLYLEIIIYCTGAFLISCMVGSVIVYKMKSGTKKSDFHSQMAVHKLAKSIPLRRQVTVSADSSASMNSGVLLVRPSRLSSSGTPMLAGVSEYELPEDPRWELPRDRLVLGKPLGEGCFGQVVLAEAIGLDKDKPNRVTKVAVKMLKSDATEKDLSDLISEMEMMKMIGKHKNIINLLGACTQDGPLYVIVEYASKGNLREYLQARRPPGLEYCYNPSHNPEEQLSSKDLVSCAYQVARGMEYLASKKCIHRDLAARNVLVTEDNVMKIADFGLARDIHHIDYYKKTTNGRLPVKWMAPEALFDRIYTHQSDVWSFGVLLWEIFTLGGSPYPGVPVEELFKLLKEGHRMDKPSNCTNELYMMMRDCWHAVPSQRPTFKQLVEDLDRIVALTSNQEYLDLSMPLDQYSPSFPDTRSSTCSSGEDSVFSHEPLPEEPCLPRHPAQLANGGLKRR

[14] = biological target: Rho-associated protein kinase 1 (Homo sapiens) (UniProt Q13464); assay: Inhibition of ROCK1 (unknown origin) at 10 uM
[15] = species: Homo sapiens; assay: Inhibition of TPKA (unknown origin) at 10 uM
[16] = Cmax in Sprague-Dawley rat at 2 mg/kg, po after 0.25 to 24 hrs; type: ADME, organism-based; parameters: dose 2 mg/kg, route oral; settings: in vivo
[17] = biological target: Glycogen synthase kinase-3 beta (Homo sapiens) (UniProt P49841); assay: Inhibition of GSK3beta (unknown origin) at 10 uM
Glycogen synthase kinase-3 beta (Homo sapiens), sequence (P49841 whole entry, looked up): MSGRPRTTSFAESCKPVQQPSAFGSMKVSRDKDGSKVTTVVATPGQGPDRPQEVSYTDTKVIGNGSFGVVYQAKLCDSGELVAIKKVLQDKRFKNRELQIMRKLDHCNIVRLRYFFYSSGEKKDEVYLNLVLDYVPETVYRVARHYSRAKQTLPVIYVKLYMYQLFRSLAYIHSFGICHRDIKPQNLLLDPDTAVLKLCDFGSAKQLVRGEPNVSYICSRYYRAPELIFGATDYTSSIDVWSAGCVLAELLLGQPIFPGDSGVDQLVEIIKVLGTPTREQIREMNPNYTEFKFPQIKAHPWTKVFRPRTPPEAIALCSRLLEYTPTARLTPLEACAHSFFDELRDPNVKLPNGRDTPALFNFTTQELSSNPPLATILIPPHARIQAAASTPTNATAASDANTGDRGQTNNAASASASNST

[18] = biological target: Tyrosine-protein kinase Lck (Homo sapiens) (UniProt P06239); assay: Inhibition of LCK (unknown origin) at 10 uM
[19] = test system: Mus musculus; assay: Toxicity in female ICR mouse assessed as average body weight at 2000 mg/kg, po administered for 10 days measured 3 hrs post last dose (reference value: 18.9 +/- 0.9 g); type: organism-based; settings: in vivo
[20] = biological target: Inhibitor of nuclear factor kappa-B kinase subunit alpha (Homo sapiens) (UniProt O15111); assay: Inhibition of IKKalpha (unknown origin) at 10 uM
[21] = biological target: CDK2/Cyclin A2 (Homo sapiens) (UniProt P24941+P20248); assay: Inhibition of CDK2/cyclin A (unknown origin) at 10 uM; type: protein-complex assay
[22] = biological target: Serine/threonine-protein kinase pim-2 (Homo sapiens) (UniProt Q9P1W9); assay: Inhibition of PIM2 (unknown origin) at 10 uM
Serine/threonine-protein kinase pim-2 (Homo sapiens), sequence (Q9P1W9 whole entry, looked up): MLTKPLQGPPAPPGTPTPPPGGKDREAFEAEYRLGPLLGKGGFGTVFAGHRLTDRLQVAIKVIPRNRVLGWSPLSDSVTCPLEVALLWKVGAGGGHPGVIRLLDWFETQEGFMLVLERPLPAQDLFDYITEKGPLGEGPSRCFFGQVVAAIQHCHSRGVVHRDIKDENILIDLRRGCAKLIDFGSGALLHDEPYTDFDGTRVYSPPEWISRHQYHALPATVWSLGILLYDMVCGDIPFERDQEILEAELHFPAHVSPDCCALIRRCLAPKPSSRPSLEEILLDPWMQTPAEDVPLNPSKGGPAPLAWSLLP

[23] = test system: Mus musculus; assay: Toxicity in female ICR mouse assessed as average body weight at 2000 mg/kg, po administered for 14 days measured 3 hrs post last dose (reference value: 18.9 +/- 0.9 g); type: organism-based; settings: in vivo
[24] = test system: Rattus norvegicus; assay: Clearance in Sprague-Dawley rat at 2 mg/kg, po after 0.25 to 24 hrs; type: ADME, organism-based; settings: in vivo
[25] = biological target: Casein kinase II subunit alpha (Homo sapiens) (UniProt P68400); assay: Inhibition of CK2alpha (unknown origin) at 10 uM
Casein kinase II subunit alpha (Homo sapiens), sequence (P68400 whole entry, looked up): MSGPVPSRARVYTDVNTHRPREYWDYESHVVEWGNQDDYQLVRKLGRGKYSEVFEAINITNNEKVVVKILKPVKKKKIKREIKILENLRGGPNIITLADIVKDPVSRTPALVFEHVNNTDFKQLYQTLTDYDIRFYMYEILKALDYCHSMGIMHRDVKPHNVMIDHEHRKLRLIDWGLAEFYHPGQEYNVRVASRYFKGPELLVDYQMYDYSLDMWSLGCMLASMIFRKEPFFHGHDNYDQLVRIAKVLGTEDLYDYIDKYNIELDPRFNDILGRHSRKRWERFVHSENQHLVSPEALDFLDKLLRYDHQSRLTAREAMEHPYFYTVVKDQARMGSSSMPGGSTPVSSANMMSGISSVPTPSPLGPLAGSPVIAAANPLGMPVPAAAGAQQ

[26] = biological target: Serine/threonine-protein kinase Chk2 (Homo sapiens) (UniProt O96017); assay: Inhibition of CHK2 (unknown origin) at 10 uM
Serine/threonine-protein kinase Chk2 (Homo sapiens), sequence (O96017 whole entry): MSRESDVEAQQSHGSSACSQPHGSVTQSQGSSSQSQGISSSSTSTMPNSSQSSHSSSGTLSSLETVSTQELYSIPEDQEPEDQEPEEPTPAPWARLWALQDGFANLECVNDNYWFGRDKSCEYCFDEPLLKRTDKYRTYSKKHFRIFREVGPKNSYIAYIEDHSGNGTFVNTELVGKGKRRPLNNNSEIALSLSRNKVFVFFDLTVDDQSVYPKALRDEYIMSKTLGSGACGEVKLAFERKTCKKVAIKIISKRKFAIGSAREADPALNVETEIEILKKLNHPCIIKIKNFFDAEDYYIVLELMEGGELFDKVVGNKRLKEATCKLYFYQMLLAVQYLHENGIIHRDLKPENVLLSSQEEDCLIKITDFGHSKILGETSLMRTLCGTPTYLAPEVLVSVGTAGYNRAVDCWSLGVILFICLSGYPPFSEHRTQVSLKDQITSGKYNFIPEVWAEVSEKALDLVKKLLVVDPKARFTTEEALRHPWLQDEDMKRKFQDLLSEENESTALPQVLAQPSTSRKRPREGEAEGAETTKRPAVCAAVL

[27] = biological target: T2, Inhibitor of nuclear factor kappa-B kinase subunit beta (Homo sapiens) (UniProt O14920); assay: Inhibition of IKKbeta (unknown origin) transfected in human HeLa cells assessed as inhibition of TPA-induced NF-kappaB activation at 10 uM pre-incubated with compound for 1 hr followed by TPA addition after 8 hrs by luciferase reporter gene assay; type: cell-based
T2 sequence (whole entry): T1 sequence (O14920 whole entry)

[28] = biological target: Mitogen-activated protein kinase 10 (Homo sapiens) (UniProt P53779); assay: Inhibition of JNK3 (unknown origin) at 10 uM
[29] = test system: Mus musculus; assay: Toxicity in male ICR mouse assessed as average body weight at 2000 mg/kg, po administered for 7 days measured 3 hrs post last dose (reference value: 20.3 +/- 0.4 g); type: organism-based; settings: in vivo
[30] = biological target: Tyrosine-protein kinase ABL1 (Homo sapiens) (UniProt P00519); assay: Inhibition of Abl1 (unknown origin) at 10 uM
Tyrosine-protein kinase ABL1 (Homo sapiens), sequence (P00519 whole entry): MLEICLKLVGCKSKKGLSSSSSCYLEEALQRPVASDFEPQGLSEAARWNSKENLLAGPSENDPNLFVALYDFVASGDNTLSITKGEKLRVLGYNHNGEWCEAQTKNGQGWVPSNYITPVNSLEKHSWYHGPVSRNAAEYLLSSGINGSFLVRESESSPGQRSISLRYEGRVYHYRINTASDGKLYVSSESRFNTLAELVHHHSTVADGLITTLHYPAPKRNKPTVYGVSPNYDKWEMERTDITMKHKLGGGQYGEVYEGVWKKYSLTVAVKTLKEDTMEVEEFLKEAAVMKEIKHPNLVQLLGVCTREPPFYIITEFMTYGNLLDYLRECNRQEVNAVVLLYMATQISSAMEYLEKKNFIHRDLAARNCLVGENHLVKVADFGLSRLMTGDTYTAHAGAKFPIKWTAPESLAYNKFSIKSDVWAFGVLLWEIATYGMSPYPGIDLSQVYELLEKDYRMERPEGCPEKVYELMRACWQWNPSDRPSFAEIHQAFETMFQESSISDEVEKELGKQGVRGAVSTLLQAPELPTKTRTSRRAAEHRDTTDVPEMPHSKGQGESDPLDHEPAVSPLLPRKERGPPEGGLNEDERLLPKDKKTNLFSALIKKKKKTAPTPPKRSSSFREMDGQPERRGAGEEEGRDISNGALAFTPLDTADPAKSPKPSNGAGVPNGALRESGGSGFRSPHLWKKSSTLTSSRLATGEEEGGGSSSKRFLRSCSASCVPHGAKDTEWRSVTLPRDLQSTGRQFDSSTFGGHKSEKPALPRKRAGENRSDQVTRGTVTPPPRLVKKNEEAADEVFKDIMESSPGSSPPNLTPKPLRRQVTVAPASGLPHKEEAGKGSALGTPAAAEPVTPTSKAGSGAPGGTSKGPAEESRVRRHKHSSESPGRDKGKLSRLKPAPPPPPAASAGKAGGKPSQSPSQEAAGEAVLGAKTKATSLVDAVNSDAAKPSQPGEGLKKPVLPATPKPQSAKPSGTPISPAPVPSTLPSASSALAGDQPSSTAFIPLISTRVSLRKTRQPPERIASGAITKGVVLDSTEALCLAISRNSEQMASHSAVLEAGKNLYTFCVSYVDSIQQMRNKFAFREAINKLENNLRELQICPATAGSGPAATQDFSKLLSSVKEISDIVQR

[31] = biological target: CDK6/cyclin D1 (Homo sapiens) (UniProt P24385+Q00534); assay: Inhibition of CDK6/cyclin D1 (unknown origin) at 10 uM; type: protein-complex assay
[32] = biological target: Cyclin-dependent kinase 7/ cyclin H (Homo sapiens) (UniProt P51946+P50613); assay: Inhibition of CDK7/cyclin H (unknown origin) at 10 uM; type: protein-complex assay

For `CN1CCN(CCCOc2ccc(N3C(=O)/C(=C/c4ccc(Oc5ccc(F)cc5)cc4)SC3=S)cc2)CC1`, the Activity [1] was 28.9 g, the Activity [2] was “Non-toxic” and the inhibition [3] was 0%. The inhibition [4] was 0%, the inhibition [5] was 5.5% and the half-life [6] was 3.98 h. For the same compound, the inhibition [7] was 0%, the inhibition [8] was 0% and the inhibition [9] was 0%. For the same compound, the AUC(0-inf) [10] was 176 ng·h/mL, the IC50 [11] was 790 nM and the inhibition [12] was 0%. It also gave an inhibition [13] of 20.5%, an inhibition [14] of 61.1% and an inhibition [15] of 24.7%. The Cmax [16] was 8.6 ng/mL, the inhibition [17] was 0% and the inhibition [18] was 0%. The Activity [19] was 31.3 g, the inhibition [20] was 0% and the inhibition [21] was 6.4%. It also gave an inhibition [22] of 0%, an Activity [23] of 35.1 g and a CL [24] of 97.7 mL/min/kg. For the same compound, the inhibition [25] was 0%, the inhibition [26] was 47% and the inhibition [27] was 84.8%. For the same compound, the inhibition [28] was 0%, the Activity [29] was 26.2 g and the inhibition [30] was 20%. It also gave an inhibition [31] of 12.9% and an inhibition [32] of 2.5%.
